From patent US8637537B2, “Serine/threonine kinase inhibitors” (Genentech, Inc., priority 2011, dated 2014) come the findings set out here.

What is called Ki is a dissociation constant, usually derived from enzyme kinetics or from competition with a known ligand.

T1 sequence (Q13153 249-545): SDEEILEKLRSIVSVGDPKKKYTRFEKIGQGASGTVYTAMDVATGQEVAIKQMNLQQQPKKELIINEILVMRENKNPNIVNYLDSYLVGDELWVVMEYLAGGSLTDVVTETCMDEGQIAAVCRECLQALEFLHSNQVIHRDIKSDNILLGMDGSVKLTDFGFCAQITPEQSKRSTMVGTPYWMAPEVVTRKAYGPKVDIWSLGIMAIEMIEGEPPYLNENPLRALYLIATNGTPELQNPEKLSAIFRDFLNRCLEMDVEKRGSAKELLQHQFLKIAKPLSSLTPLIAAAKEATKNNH

One test addresses T1, human recombinant GST-PAK1-KD protein (Homo sapiens, UniProt Q13153).
T1 construct: residues #249-545 of human PAK1, UniProtKP/Swiss Q13153; His6 (N); made in house; host or cells: Sf9 insect cells, pAcGP67 baculovirus expression vector
Nature of the test: GST-PAK1-KD (kinase domain) biochemical assay, microfluidic mobility shift.
Conditions: not given
As for `c1cc(Nc2cc(C3CC3)[nH]n2)nc(NCc2ccc3[nH]ccc3c2)n1` [I-15, N^2-((1H-Indol-5-yl)methyl)-N^4-(5-cyclopropyl-1H-pyrazol-3-yl)pyrimidine-2,4-diamine], the Ki is below 50 nM.
`Fc1c(CNc2nccc(Nc3cc(C4CC4)[nH]n3)n2)ccc2[nH]cnc12` [I-29, N^4-(5-Cyclopropyl-1H-pyrazol-3-yl)-N^2-[(4-fluoro-1H-benzimidazol-5-yl)methyl]pyrimidine-2,4-diamine]: the Ki lay within 250 to 1000 nM.

Staying with this test, now noted: Table I, PAK1 Ki class; read-out: Ki.
In the case of `CCN(Cc1ccc2[nH]cnc2c1)c1nccc(Nc2cc(C3CC3)[nH]n2)n1` [I-71, N^2-((1H-benzo[d]imidazol-5-yl)methyl)-N^4-(5-cyclopropyl-1H-pyrazol-3-yl)-N^2-ethylpyrimidine-2,4-diamine], the Ki was below 50 nM.
The same measure, in the same setting: under `c1cc(Nc2cc(C3CC3)[nH]n2)nc(NCc2ccc3[nH]ncc3c2)n1` [I-102, N^4-(5-cyclopropyl-1H-pyrazol-3-yl)-N^2-(1H-indazol-5-ylmethyl)pyrimidine-2,4-diamine] stands 250 to 1000 nM.
In the case of `Clc1cc2[nH]ccc2cc1CNc1nccc(Nc2cc(C3CC3)[nH]n2)n1` [I-93, N^2-((6-Chloro-1H-indol-5-yl)methyl)-N^4 (5-cyclopropyl-1H-pyrazol-3-yl)pyrimidine-2,4-diamine], the Ki is 50 to 250 nM.
On to `C[C@H](Nc1nccc(Nc2cc([C@H]3C[C@H]3F)[nH]n2)n1)c1ccc2[nH]ccc2c1` [I-65, N^2—((S)-1-(1H-indol-5-yl)ethyl)-N^4-(5-((1R,2R)-2-fluorocyclopropyl)-1H-pyrazol-3-yl)pyrimidine-2,4-diamine], for which the Ki was below 50 nM.
Turning to `Cc1cc(Nc2ccnc(N[C@@H](C)c3ccc4[nH]cnc4c3)n2)n[nH]1` [I-121, (S)—N^2-(1-(1H-benzo[d]imidazol-5-yl)ethyl)-N^4-(5-methyl-1H-pyrazol-3-yl)pyrimidine-2,4-diamine], the Ki lay within 250 to 1000 nM.
For `Cc1c(CN(C)c2nccc(Nc3cc(C4CC4)[nH]n3)n2)ccc2[nH]cnc12` [I-95, N^4-(5-Cyclopropyl-1H-pyrazol-3-yl)-N^2-methyl-N^2-((4-methyl-1H-benzo[d]imidazol-5-yl)methyl)pyrimidine-2,4-diamine], the Ki is below 50 nM.
For `c1cc(Nc2cc(C3CC3)[nH]n2)nc(NCc2ccc3cc[nH]c3c2)n1` [I-35, N^2-((1H-Indol-6-yl)methyl)-N^4-(5-cyclopropyl-1H-pyrazol-3-yl)pyrimidine-2,4-diamine], the Ki is above 1000 nM.
Take `O=C(c1c[nH]c2cccc(CNc3nccc(Nc4cc(C5CC5)[nH]n4)n3)c12)C(F)(F)F` [I-37, 1-(4-((4-(5-cyclopropyl-1H-pyrazol-3-ylamino)pyrimidin-2-ylamino)methyl)-1H-indol-3-yl)-2,2,2-trifluoroethanone]: the Ki is below 50 nM.
On to `Clc1cc2[nH]cnc2cc1CNc1nccc(Nc2cc(C3CC3)[nH]n2)n1` [I-94, N^2-((6-chloro-1H-benzo[d]imidazol-5-yl)methyl)-N^4-(5-cyclopropyl-1H-pyrazol-3-yl)-pyrimidine-2,4-diamine], for which the Ki lay within 50 to 250 nM.
Regarding `Cc1cc(Nc2cc(C3CC3)[nH]n2)nc(N[C@@H](C)c2ccc3[nH]cnc3c2)n1` [I-4, (S)—N^2-(1-(1H-benzo[d]imidazol-5-yl)ethyl)-N^4-(5-cyclopropyl-1H-pyrazol-3-yl)-6-methylpyrimidine-2,4-diamine], the Ki was 50 to 250 nM.
Regarding `C[C@H](Nc1nccc(Nc2cc(C3CCC3)[nH]n2)n1)c1ccc2[nH]cnc2c1` [I-1, (S)—N^2-(1-(1H-benzo[d]imidazol-5-yl)ethyl)-N^4-(5-cyclobutyl-1H-pyrazol-3-yl)pyrimidine-2,4-diamine], the Ki is below 50 nM.
Consider `C[C@H](Nc1nccc(Nc2cc(C3CCCC3)[nH]n2)n1)c1ccc2[nH]ccc2c1` [I-113, (S)—N^2-(1-(1H-indol-5-yl)ethyl)-N^4-(5-cyclopentyl-1H-pyrazol-3-yl)pyrimidine-2,4-diamine], for which the Ki was below 50 nM.
Consider `c1ccc([C@@H]2C[C@H]2c2cc(Nc3ccnc(NCc4cccc5[nH]ccc45)n3)n[nH]2)cc1` (racemic) [I-57, N^2-((1H-indol-4-yl)methyl)-N^4-(5-((trans)-2-phenylcyclopropyl)-1H-pyrazol-3-yl)pyrimidine-2,4-diamine], for which the Ki lay in the range of 250 to 1000 nM.
In the case of `Fc1cnc(NCc2ccc3[nH]cnc3c2Cl)nc1Nc1cc(C2CC2)[nH]n1` [I-117, N^2-((4-chloro-1H-benzo[d]imidazol-5-yl)methyl)-N^4-(5-cyclopropyl-1H-pyrazol-3-yl)-5-fluoropyrimidine-2,4-diamine], the inhibition constant Ki was below 50 nM.
As to `Cc1c[nH]c2cccc(CNc3nccc(Nc4cc(C5CC5)[nH]n4)n3)c12` [I-92, N^4-(5-Cyclopropyl-1H-pyrazol-3-yl)-N^2-((3-methyl-1H-indol-4-yl)methyl)pyrimidine-2,4-diamine], the Ki was below 50 nM.
Same read-out and setting: the value for `C[C@H](Nc1nccc(Nc2cc(C3CCCO3)[nH]n2)n1)c1ccc2[nH]ccc2c1` (stereo partly drawn) [I-116, N^2—((S)-1-(1H-indol-5-yl)ethyl)-N^4-(5-(tetrahydrofuran-2-yl)-1H-pyrazol-3-yl)pyrimidine-2,4-diamine] was 250 to 1000 nM; that for `c1cc(CNc2nccc(Nc3cc(C4CCOC4)[nH]n3)n2)c2cc[nH]c2c1` (centres unmarked) [I-51, N^2-((1H-indol-4-yl)methyl)-N^4-(5-(tetrahydrofuran-3-yl)-1H-pyrazol-3-yl)pyrimidine-2,4-diamine] was 50 to 250 nM; that for `Cc1cnc(N[C@@H](C)c2ccc3[nH]ccc3c2)nc1Nc1cc(C2CC2)[nH]n1` [I-31, (S)—N^2-(1-(1H-indol-5-yl)ethyl)-N^4-(5-cyclopropyl-1H-pyrazol-3-yl)-5-methylpyrimidine-2,4-diamine] was 250 to 1000 nM.

The test is the same for the next values; noted with them: Table II, PAK1 Ki class; read-out: Ki.
On to `c1cncc(CN(Cc2cccc3[nH]ccc23)c2nccc(Nc3cc(C4CC4)[nH]n3)n2)c1` [II-10, N^4-(5-Cyclopropyl-1H-pyrazol-3-yl)-N^2-(1H-indol-4-ylmethyl)-N^2-(3-pyridylmethyl)pyrimidine-2,4-diamine], for which the Ki fell in the range of 50 to 250 nM.
As for `Cc1n[nH]c2cc(Cl)cc(CNc3nccc(Nc4cc(C5CC5)[nH]n4)n3)c12` [II-12, N^2-((6-Chloro-3-methyl-1H-indazol-4-yl)methyl)-N^4-(5-cyclopropyl-1H-pyrazol-3-yl)pyrimidine-2,4-diamine], the Ki is below 50 nM.
For the compound `Clc1cc(CNc2nccc(Nc3cc(C4CC4)[nH]n3)n2)c2cn[nH]c2c1` [II-50, N^2-((6-chloro-1H-indazol-4-yl)methyl)-N^4-(5-cyclopropyl-1H-pyrazol-3-yl)pyrimidine-2,4-diamine], the Ki was below 50 nM.
In the case of `CCN(Cc1cc(F)cc2[nH]ncc12)c1nccc(Nc2cc(C3CC3)[nH]n2)n1` [II-70, N^4-(5-cyclopropyl-1H-pyrazol-3-yl)-N^2-ethyl-N^2-((6-fluoro-1H-indazol-4-yl)methyl)pyrimidine-2,4-diamine], the Ki is below 50 nM.
On to `Fc1cnc(NCc2cc(C(F)(F)F)cc3[nH]ncc23)nc1Nc1cc(C2CC2)[nH]n1` [II-109, N^4-(5-cyclopropyl-1H-pyrazol-3-yl)-5-fluoro-N^2-((6-(trifluoromethyl)-1H-indazol-4-yl)methyl)pyrimidine-2,4-diamine], for which the Ki was in the range of 250 to 1000 nM.
Take `C[C@H](O)CN(Cc1cc(F)cc2[nH]ncc12)c1nccc(Nc2cc(C3CC3)[nH]n2)n1` [II-72, (S)-1-((4-((5-cyclopropyl-1H-pyrazol-3-yl)amino)pyrimidin-2-yl)((6-fluoro-1H-indazol-4-yl)methyl)amino)propan-2-ol]: the inhibition constant (Ki) is below 50 nM.
For `CN(Cc1ccc2[nH]cnc2c1Cl)c1nccc(Nc2cc(OCc3ccccc3)[nH]n2)n1` [II-3, N^4-(5-Benzyloxy-1H-pyrazol-3-yl)-N^2-[(4-chloro-1H-benzimidazol-5-yl)methyl]-N^2-methyl-pyrimidine-2,4-diamine], the Ki was below 50 nM.
Consider `Fc1ccc2[nH]ncc2c1CNc1nccc(Nc2cc(C3CC3)[nH]n2)n1` [II-75, N^4-(5-cyclopropyl-1H-pyrazol-3-yl)-N^2-((5-fluoro-1H-indazol-4-yl)methyl)pyrimidine-2,4-diamine], for which the Ki is below 50 nM.
As for `C[C@H](Nc1nccc(Nc2cc(C3CC3)[nH]n2)n1)c1c(F)ccc2[nH]ncc12` [II-61, (S)-N^4-(5-cyclopropyl-1H-pyrazol-3-yl)-N^2-(1-(5-fluoro-1H-indazol-4-yl)ethyl)pyrimidine-2,4-diamine], the Ki is below 50 nM.
On the same count and under the same terms, the value for `CN(Cc1cc(F)cc2[nH]ncc12)c1nccc(Nc2cc(C3CC3)[nH]n2)n1` [II-58, N^4-(5-cyclopropyl-1H-pyrazol-3-yl)-N^2-((6-fluoro-1H-indazol-4-yl)methyl)-N^2-methylpyrimidine-2,4-diamine] was below 50 nM.
Still for that read-out and setting: the value for `CN(C)CCN(Cc1cccc2[nH]ccc12)c1nccc(Nc2cc([C@H]3C[C@@H]3F)[nH]n2)n1` [II-88, N^2-((1H-indol-4-yl)methyl)-N^2-(2-(dimethylamino)ethyl)-N^4-(5-((1R,2S)-2-fluorocyclopropyl)-1H-pyrazol-3-yl)pyrimidine-2,4-diamine] was below 50 nM.
As for `Fc1cc(CNc2nccc(Nc3cc([C@H]4C[C@@H]4F)[nH]n3)n2)c2cc[nH]c2c1` [II-82, N^2-((6-fluoro-1H-indol-4-yl)methyl)-N^4-(5-((1R,2S)-2-fluorocyclopropyl)-1H-pyrazol-3-yl)pyrimidine-2,4-diamine], the inhibitory constant (Ki) was below 50 nM.
On the same count and under the same terms, under `CC(C)N(Cc1ccc2[nH]cnc2c1)c1nccc(Nc2cc(C3CC3)[nH]n2)n1` [II-26, N^2-((1H-Benzo[d]imidazol-5-yl)methyl)-N^4-(5-cyclopropyl-1H-pyrazol-3-yl)-N^2-isopropylpyrimidine-2,4-diamine] stands below 50 nM; under `CN(Cc1c(F)ccc2[nH]ncc12)c1nccc(Nc2cc(C3CC3)[nH]n2)n1` [II-100, N^4-(5-cyclopropyl-1H-pyrazol-3-yl)-N^2-((5-fluoro-1H-indazol-4-yl)methyl)-N^2-methylpyrimidine-2,4-diamine], below 50 nM; under `Fc1cnc(NCc2cc(Cl)cc3[nH]ncc23)nc1Nc1cc(C2CC2)[nH]n1` [II-57, N^2-((6-chloro-1H-indazol-4-yl)methyl)-N^4-(5-cyclopropyl-1H-pyrazol-3-yl)-5-fluoropyrimidine-2,4-diamine], below 50 nM.
